The term IC50 denotes the concentration needed to halve the response being measured.

Molecules are shown by their SMILES.
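Also: spheroids exposed to compounds for one week before readout.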

The subject of the first assay is 317291-083-R-J1-PDC complex spheroids, viability. In words: Anticancer human tumor 317291-083-R-J1-PDC patient-derived soft tissue sarcoma cell line growth inhibition [GQUAD]. As to conditions: curve of first compound; second compound 0.0316 µM. The essentials:
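Multi-cell-type spheroids of tumor cells with HUVEC and mesenchymal stem cells, treated with drug combinations. Concentrations descend in half-log steps from near clinical Cmax, or from 10 microM where Cmax is unknown; viability read-out.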
For `CC(C)(O)C1CCC(Nc2ccc3ncc(-c4cccc(C(F)(F)F)c4)n3n2)CC1` (stereo unspecified) + CN(C)c1ccc(Nc2c3ccc(NC(=O)CCN4CCCC4)cc3nc3cc(NC(=O)CCN4CCCC4)ccc23)cc1, the IC50 was 789 nM.
On the same count and under the same terms, the value for `C=CC(=O)N1CCN(c2nc(=O)n(-c3c(C)ccnc3C(C)C)c3nc(-c4c(O)cccc4F)c(F)cc23)C(C)C1` (stereo unspecified) + CN(C)c1ccc(Nc2c3ccc(NC(=O)CCN4CCCC4)cc3nc3cc(NC(=O)CCN4CCCC4)ccc23)cc1 was greater than 10000 nM; that for `C=CC(=O)N1CCN(c2nc(=O)n(-c3c(C)ccnc3C(C)C)c3nc(-c4c(O)cccc4F)c(F)cc23)C(C)C1` (stereo unspecified) + Cc1cnc(CNC(=O)c2c(=O)c3ccc(N4CCCN(C)CC4)nc3n3c2sc2ccccc23)cn1 was greater than 10000 nM; that for `COc1cc(C2c3cc4c(cc3C(OC3OC5COC(C)OC5C(O)C3O)C3COC(=O)C23)OCO4)cc(OC)c1O` (stereo unspecified) + Cc1[nH]c2ccc(F)cc2c1-c1nc2c3cccnc3c3ncccc3c2[nH]1 was 432 nM.
Still for that read-out and setting: as for `O=C(NO)c1cnc(N2CCN(S(=O)(=O)c3ccc4ccccc4c3)CC2)nc1` + Cc1cnc(CNC(=O)c2c(=O)c3ccc(N4CCCN(C)CC4)nc3n3c2sc2ccccc23)cn1, the figure is 109 nM.

The assay is the same for the next values; noted with them: curve of first compound; second compound 0.1 µM.
Turning to `CC(C)(O)C1CCC(Nc2ccc3ncc(-c4cccc(C(F)(F)F)c4)n3n2)CC1` (stereo unspecified) + CN(C)c1ccc(Nc2c3ccc(NC(=O)CCN4CCCC4)cc3nc3cc(NC(=O)CCN4CCCC4)ccc23)cc1, the half-inhibitory concentration (IC50) was 691 nM.
Still for that read-out and setting: the value for `C=CC(=O)N1CCN(c2nc(=O)n(-c3c(C)ccnc3C(C)C)c3nc(-c4c(O)cccc4F)c(F)cc23)C(C)C1` (stereo unspecified) + CN(C)c1ccc(Nc2c3ccc(NC(=O)CCN4CCCC4)cc3nc3cc(NC(=O)CCN4CCCC4)ccc23)cc1 was greater than 10000 nM; that for `C=CC(=O)N1CCN(c2nc(=O)n(-c3c(C)ccnc3C(C)C)c3nc(-c4c(O)cccc4F)c(F)cc23)C(C)C1` (stereo unspecified) + Cc1cnc(CNC(=O)c2c(=O)c3ccc(N4CCCN(C)CC4)nc3n3c2sc2ccccc23)cn1 was 8780 nM.
Same read-out and setting: the value for `COc1cc(C2c3cc4c(cc3C(OC3OC5COC(C)OC5C(O)C3O)C3COC(=O)C23)OCO4)cc(OC)c1O` (stereo unspecified) + Cc1[nH]c2ccc(F)cc2c1-c1nc2c3cccnc3c3ncccc3c2[nH]1 was 276 nM.
The same measure, in the same setting: as for `O=C(NO)c1cnc(N2CCN(S(=O)(=O)c3ccc4ccccc4c3)CC2)nc1` + Cc1cnc(CNC(=O)c2c(=O)c3ccc(N4CCCN(C)CC4)nc3n3c2sc2ccccc23)cn1, the figure is less than 31.6 nM.

The same assay, now with this note: curve of first compound; second compound 0.316 µM.
For the molecule `CC(C)(O)C1CCC(Nc2ccc3ncc(-c4cccc(C(F)(F)F)c4)n3n2)CC1` (stereo unspecified) + CN(C)c1ccc(Nc2c3ccc(NC(=O)CCN4CCCC4)cc3nc3cc(NC(=O)CCN4CCCC4)ccc23)cc1, the IC50 was 455 nM.
Same read-out and setting: the value for `C=CC(=O)N1CCN(c2nc(=O)n(-c3c(C)ccnc3C(C)C)c3nc(-c4c(O)cccc4F)c(F)cc23)C(C)C1` (stereo unspecified) + CN(C)c1ccc(Nc2c3ccc(NC(=O)CCN4CCCC4)cc3nc3cc(NC(=O)CCN4CCCC4)ccc23)cc1 was greater than 10000 nM; that for `C=CC(=O)N1CCN(c2nc(=O)n(-c3c(C)ccnc3C(C)C)c3nc(-c4c(O)cccc4F)c(F)cc23)C(C)C1` (stereo unspecified) + Cc1cnc(CNC(=O)c2c(=O)c3ccc(N4CCCN(C)CC4)nc3n3c2sc2ccccc23)cn1 was 4430 nM; that for `COc1cc(C2c3cc4c(cc3C(OC3OC5COC(C)OC5C(O)C3O)C3COC(=O)C23)OCO4)cc(OC)c1O` (stereo unspecified) + Cc1[nH]c2ccc(F)cc2c1-c1nc2c3cccnc3c3ncccc3c2[nH]1 was 260 nM.
`O=C(NO)c1cnc(N2CCN(S(=O)(=O)c3ccc4ccccc4c3)CC2)nc1` + Cc1cnc(CNC(=O)c2c(=O)c3ccc(N4CCCN(C)CC4)nc3n3c2sc2ccccc23)cn1: the IC50 was less than 31.6 nM.

Still in this assay, the particulars now being: curve of first compound; second compound 1 µM.
Take `CC(C)(O)C1CCC(Nc2ccc3ncc(-c4cccc(C(F)(F)F)c4)n3n2)CC1` (stereo unspecified) + CN(C)c1ccc(Nc2c3ccc(NC(=O)CCN4CCCC4)cc3nc3cc(NC(=O)CCN4CCCC4)ccc23)cc1: the IC50 came out at 44.7 nM.
In the case of `C=CC(=O)N1CCN(c2nc(=O)n(-c3c(C)ccnc3C(C)C)c3nc(-c4c(O)cccc4F)c(F)cc23)C(C)C1` (stereo unspecified) + CN(C)c1ccc(Nc2c3ccc(NC(=O)CCN4CCCC4)cc3nc3cc(NC(=O)CCN4CCCC4)ccc23)cc1, the half-maximal inhibitory concentration (IC50) was 1420 nM.
Still for that read-out and setting: as for `C=CC(=O)N1CCN(c2nc(=O)n(-c3c(C)ccnc3C(C)C)c3nc(-c4c(O)cccc4F)c(F)cc23)C(C)C1` (stereo unspecified) + Cc1cnc(CNC(=O)c2c(=O)c3ccc(N4CCCN(C)CC4)nc3n3c2sc2ccccc23)cn1, the figure is 153 nM; as for `COc1cc(C2c3cc4c(cc3C(OC3OC5COC(C)OC5C(O)C3O)C3COC(=O)C23)OCO4)cc(OC)c1O` (stereo unspecified) + Cc1[nH]c2ccc(F)cc2c1-c1nc2c3cccnc3c3ncccc3c2[nH]1, 260 nM; as for `O=C(NO)c1cnc(N2CCN(S(=O)(=O)c3ccc4ccccc4c3)CC2)nc1` + Cc1cnc(CNC(=O)c2c(=O)c3ccc(N4CCCN(C)CC4)nc3n3c2sc2ccccc23)cn1, less than 31.6 nM.

The same assay, now with this note: curve of first compound; second compound 3.16 µM.
With `CC(C)(O)C1CCC(Nc2ccc3ncc(-c4cccc(C(F)(F)F)c4)n3n2)CC1` (stereo unspecified) + CN(C)c1ccc(Nc2c3ccc(NC(=O)CCN4CCCC4)cc3nc3cc(NC(=O)CCN4CCCC4)ccc23)cc1, the IC50 is less than 31.6 nM.
Take `C=CC(=O)N1CCN(c2nc(=O)n(-c3c(C)ccnc3C(C)C)c3nc(-c4c(O)cccc4F)c(F)cc23)C(C)C1` (stereo unspecified) + CN(C)c1ccc(Nc2c3ccc(NC(=O)CCN4CCCC4)cc3nc3cc(NC(=O)CCN4CCCC4)ccc23)cc1: the half-inhibitory concentration (IC50) is less than 31.6 nM.
Still for that read-out and setting: the value for `C=CC(=O)N1CCN(c2nc(=O)n(-c3c(C)ccnc3C(C)C)c3nc(-c4c(O)cccc4F)c(F)cc23)C(C)C1` (stereo unspecified) + Cc1cnc(CNC(=O)c2c(=O)c3ccc(N4CCCN(C)CC4)nc3n3c2sc2ccccc23)cn1 was less than 31.6 nM; that for `COc1cc(C2c3cc4c(cc3C(OC3OC5COC(C)OC5C(O)C3O)C3COC(=O)C23)OCO4)cc(OC)c1O` (stereo unspecified) + Cc1[nH]c2ccc(F)cc2c1-c1nc2c3cccnc3c3ncccc3c2[nH]1 was 192 nM.
Same read-out and setting: the value for `O=C(NO)c1cnc(N2CCN(S(=O)(=O)c3ccc4ccccc4c3)CC2)nc1` + Cc1cnc(CNC(=O)c2c(=O)c3ccc(N4CCCN(C)CC4)nc3n3c2sc2ccccc23)cn1 was less than 31.6 nM.

The same assay, now with this note: curve of first compound; second compound 10 µM.
`CC(C)(O)C1CCC(Nc2ccc3ncc(-c4cccc(C(F)(F)F)c4)n3n2)CC1` (stereo unspecified) + CN(C)c1ccc(Nc2c3ccc(NC(=O)CCN4CCCC4)cc3nc3cc(NC(=O)CCN4CCCC4)ccc23)cc1: the 50% inhibitory concentration (IC50) is less than 31.6 nM.

The values are drawn from PubChem BioAssay AID2060497 (Molecular Pharmacology Branch, DTP, NCI, 2025).
